Measured values: patent US20060069132A1, “Azolecarboxamide herbicides” (priority 2004, published 2006)

Experiments:
barnyardgrass [1] = experiment: Test B pre-/postemergence herbicide test; type: in vivo, Echinochloa crus-galli
In short: (§1)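 Greenhouse pot assay with simultaneous preemergence (treated seed) and postemergence (2–18 cm seedlings) applications of surfactant-containing, non-phytotoxic solvent formulations. Response scored visually 13–15 days later on a 0–100 scale, 100 meaning complete control.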

Surinam grass = experiment: Test B pre-/postemergence herbicide test; type: in vivo, Urochloa decumbens
In short: (§2)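 Herbicidal effect was judged by eye on a 0–100 scale after plants stood 13 to 15 days in the greenhouse following pre- or postemergence treatment with surfactant-containing formulations.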

cocklebur = experiment: Test B pre-/postemergence herbicide test; type: in vivo, Xanthium strumarium
In short: as §1

corn = experiment: Test B pre-/postemergence herbicide test; type: in vivo, Zea mays
In short: as §2

large crabgrass = experiment: Test B pre-/postemergence herbicide test; type: in vivo, Digitaria sanguinalis
In short: as §2

giant foxtail = experiment: Test B pre-/postemergence herbicide test; type: in vivo, Setaria faberi
In short: as §2

lambsquarters = experiment: Test B pre-/postemergence herbicide test; type: in vivo, Chenopodium album
In short: as §2

morningglory = experiment: Test B pre-/postemergence herbicide test; type: in vivo, Ipomoea coccinea
In short: as §1

pigweed = experiment: Test B pre-/postemergence herbicide test; type: in vivo, Amaranthus retroflexus
In short: as §2

velvetleaf = experiment: Test B pre-/postemergence herbicide test; type: in vivo, Abutilon theophrasti
In short: as §2

blackgrass = experiment: Test B postemergence herbicide test; type: in vivo, Alopecurus myosuroides
In short: (§3)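 Greenhouse test; postemergence application to plants at 1–4 leaves (2–18 cm); paddy species at 2 leaves; evaluated visually vs controls at 13–15 days; scale 0–100 (100 = complete control).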

wheat = experiment: Test B postemergence herbicide test; type: in vivo, Triticum aestivum; parameters: key to Wheat plant response rating: 0 = no effect, 100 = complete control
In short: (§4)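 Read-out: visual comparison with controls, scored 0 to 100, where 100 means complete control and 0 no effect. Formulated chemicals were applied postemergence to plants 2–18 cm tall (1- to 4-leaf), or to flooded-paddy plants at the 2-leaf stage, then held 13 to 15 days under glass.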

wild oat = experiment: Test B postemergence herbicide test; type: in vivo, Avena fatua
In short: as §4

rice = experiment: Test B flooded paddy test; type: in vivo, Oryza sativa; settings: 1000 g ai/ha, scale 0 to 100 (0 no effect, 100 complete control)
In short: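 Treated at 2-leaf (paddy) or 1–4-leaf, 2–18 cm (postemergence); greenhouse 13–15 d; visual score vs control, 0 none to 100 complete control; dash = not tested.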

[2] = tested on: small flower umbrella sedge; experiment: Test B flooded paddy test; type: in vivo, Cyperus difformis; settings: 1000 g ai/ha, scale 0 to 100 (0 no effect, 100 complete control)
In short: as §3

ducksalad = experiment: Test B flooded paddy test; type: in vivo, Heteranthera limosa; settings: 1000 g ai/ha, scale 0 to 100 (0 no effect, 100 complete control)
In short: as §3

barnyardgrass [3] = experiment: Test B flooded paddy test; type: in vivo, Echinochloa crus-galli; settings: 1000 g ai/ha, scale 0 to 100 (0 no effect, 100 complete control)
In short: as §3

[4] = Postemergence, 250 g ai/ha, scale 0 (no effect) to 100 (complete control)
[5] = postemergence, 62 g ai/ha, scale 0 to 100
[6] = 500 g ai/ha, visual rating 0-100, 0 no effect, 100 complete control, preemergence
[7] = Postemergence, 500 g ai/ha, visual rating after 13 to 15 days, scale 0 (no effect) to 100 (complete control)
[8] = postemergence, 125 g ai/ha, visual rating, scale 0 (no effect) to 100 (complete control)
[9] = preemergence, 125 g ai/ha, 0 to 100 scale, 0 is no effect, 100 is complete control
[10] = postemergence, 500 g ai/ha, visual rating, scale 0 (no effect) to 100 (complete control)
[11] = 125 g ai/ha, 0 is no effect, 100 is complete control, preemergence
[12] = 125 g ai/ha, visual rating, scale 0 (no effect) to 100 (complete control), postemergence
[13] = postemergence, 500 g ai/ha, scale 0 to 100, 0 is no effect, 100 is complete control
[14] = Postemergence, 500 g ai/ha, scale 0 (no effect) to 100 (complete control)

CCOC(=O)c1ccc(F)c(NC(=O)c2cc(CC(C)C)nn2CC)c1 [Compound 72]
10: Lambsquarters plant response rating (lambsquarters; [4]) | Wheat plant response rating (wheat; [4]) | Wheat plant response rating (wheat; [5])
40: Blackgrass plant response rating (blackgrass; [5])
20: Oat, Wild plant response rating (wild oat; [5])
0: Barnyardgrass plant response rating (barnyardgrass [1]; [4]) | Barnyardgrass plant response rating (barnyardgrass [1]; [5]) | Surinam Grass plant response rating (Surinam grass; [4]) | Surinam Grass plant response rating (Surinam grass; [5]) | Cocklebur plant response rating (cocklebur; [4]) | Cocklebur plant response rating (cocklebur; [5]) | Corn plant response rating (corn; [4]) | Corn plant response rating (corn; [5]) | Crabgrass, Large plant response rating (large crabgrass; [4]) | Crabgrass, Large plant response rating (large crabgrass; [5]) | Foxtail, Giant plant response rating (giant foxtail; [4]) | Foxtail, Giant plant response rating (giant foxtail; [5]) | Lambsquarters plant response rating (lambsquarters; [5]) | Morningglory plant response rating (morningglory; [4]) | Morningglory plant response rating (morningglory; [5]) | Pigweed plant response rating (pigweed; [4]) | Pigweed plant response rating (pigweed; [5]) | Velvetleaf plant response rating (velvetleaf; [4]) | Velvetleaf plant response rating (velvetleaf; [5]) | Wheat plant response rating (wheat; 250 g ai/ha, scale 0 to 100, 0 no effect, 100 complete control, preemergence) | Rice plant response rating (rice; visual rating, 13 to 15 days) | Sedge, Umbrella plant response rating ([2]; visual rating, 13 to 15 days) | Ducksalad plant response rating (ducksalad; visual rating, 13 to 15 days) | Barnyardgrass plant response rating (barnyardgrass [3]; visual rating, 13 to 15 days)
30: Oat, Wild plant response rating (wild oat; [4])
50: Blackgrass plant response rating (blackgrass; [4])

COc1ccc(C(C)=NO)cc1NC(=O)c1cc(C(C)(C)C)nn1C [Compound 104]
90: Plant response rating, Crabgrass, Large (large crabgrass; [6])
80: Plant response rating, Barnyardgrass (barnyardgrass [1]; [6]) | Plant response rating, Crabgrass, Large (large crabgrass; [9]) | Plant response rating, Lambsquarters (lambsquarters; [6])
0: Plant response rating, Barnyardgrass (barnyardgrass [1]; [7]) | Barnyardgrass plant response rating (barnyardgrass [1]; [8]) | Plant response rating, Barnyardgrass (barnyardgrass [1]; [9]) | Surinam Grass plant response rating (Surinam grass; [8]) | Plant response rating, Surinam Grass (Surinam grass; [9]) | Plant response rating, Cocklebur (cocklebur; [6]) | Plant response rating, Cocklebur (cocklebur; [7]) | Cocklebur plant response rating (cocklebur; [8]) | Plant response rating, Cocklebur (cocklebur; [9]) | Plant response rating, Corn (corn; [6]) | Plant response rating, Corn (corn; [7]) | Corn plant response rating (corn; [8]) | Plant response rating, Corn (corn; [9]) | Plant response rating, Crabgrass, Large (large crabgrass; [7]) | Crabgrass, Large plant response rating (large crabgrass; [8]) | Plant response rating, Foxtail, Giant (giant foxtail; [7]) | Foxtail, Giant plant response rating (giant foxtail; [8]) | Plant response rating, Foxtail, Giant (giant foxtail; [9]) | Lambsquarters plant response rating (lambsquarters; [8]) | Plant response rating, Morningglory (morningglory; [7]) | Morningglory plant response rating (morningglory; [8]) | Plant response rating, Morningglory (morningglory; [9]) | Plant response rating, Velvetleaf (velvetleaf; [6]) | Plant response rating, Velvetleaf (velvetleaf; [7]) | Velvetleaf plant response rating (velvetleaf; [8]) | Plant response rating, Velvetleaf (velvetleaf; [9]) | Plant response rating, Blackgrass (blackgrass; [7]) | Blackgrass plant response rating (blackgrass; [8]) | Plant response rating, Wheat (wheat; [7]) | Wheat plant response rating (wheat; [8]) | Plant response rating, Oat, Wild (wild oat; [7]) | Oat, Wild plant response rating (wild oat; [8]) | Rice plant response rating (rice; visual rating, 13 to 15 days) | Barnyardgrass plant response rating (barnyardgrass [3]; visual rating, 13 to 15 days)
20: Plant response rating, Surinam Grass (Surinam grass; [6]) | Plant response rating, Foxtail, Giant (giant foxtail; [6]) | Plant response rating, Lambsquarters (lambsquarters; [7]) | Plant response rating, Morningglory (morningglory; [6])
70: Plant response rating, Pigweed (pigweed; [6]) | Sedge, Umbrella plant response rating ([2]; visual rating, 13 to 15 days)
60: Plant response rating, Lambsquarters (lambsquarters; [9]) | Plant response rating, Pigweed (pigweed; [9]) | Ducksalad plant response rating (ducksalad; visual rating, 13 to 15 days)
10: Plant response rating, Surinam Grass (Surinam grass; [7]) | Plant response rating, Pigweed (pigweed; [7]) | Pigweed plant response rating (pigweed; [8])

C=CCn1nc(C(C)(C)C)cc1C(=O)Nc1cccc(C(C)=O)c1 [Compound 129]
70: Ducksalad plant response rating (ducksalad; visual rating, 13 to 15 days)
10: Plant response rating, Surinam Grass (Surinam grass; [6]) | Crabgrass, Large plant response rating (large crabgrass; [10]) | Foxtail, Giant plant response rating (giant foxtail; [10]) | Foxtail, Giant plant response rating (giant foxtail; [5]) | Lambsquarters plant response rating (lambsquarters; [10]) | Pigweed plant response rating (pigweed; [10]) | Plant response rating, Velvetleaf (velvetleaf; [6]) | Rice plant response rating (rice; visual rating, 13 to 15 days)
60: Plant response rating, Barnyardgrass (barnyardgrass [1]; [6]) | Cocklebur plant response rating (cocklebur; [10]) | Cocklebur plant response rating (cocklebur; [5])
30: Plant response rating, Pigweed (pigweed; [6]) | Barnyardgrass plant response rating (barnyardgrass [3]; visual rating, 13 to 15 days)
80: Sedge, Umbrella plant response rating ([2]; visual rating, 13 to 15 days)
0: Barnyardgrass plant response rating (barnyardgrass [1]; [10]) | Barnyardgrass plant response rating (barnyardgrass [1]; [5]) | Surinam Grass plant response rating (Surinam grass; [5]) | Plant response rating, Corn (corn; [6]) | Crabgrass, Large plant response rating (large crabgrass; [5]) | Lambsquarters plant response rating (lambsquarters; [5]) | Plant response rating, Morningglory (morningglory; [6]) | Pigweed plant response rating (pigweed; [5]) | Velvetleaf plant response rating (velvetleaf; [5]) | Blackgrass plant response rating (blackgrass; [10]) | Blackgrass plant response rating (blackgrass; [5]) | Wheat plant response rating (wheat; [10]) | Wheat plant response rating (wheat; [5]) | Oat, Wild plant response rating (wild oat; [10]) | Oat, Wild plant response rating (wild oat; [5])
20: Surinam Grass plant response rating (Surinam grass; [10]) | Plant response rating, Cocklebur (cocklebur; [6]) | Plant response rating, Foxtail, Giant (giant foxtail; [6]) | Plant response rating, Lambsquarters (lambsquarters; [6]) | Velvetleaf plant response rating (velvetleaf; [10])
90: Plant response rating, Crabgrass, Large (large crabgrass; [6])

C#CCNC(=O)c1cccc(NC(=O)c2nn(C(C)C)nc2CC)c1 [Compound 379]
0: Plant response rating (0 to 100 scale), Barnyardgrass (barnyardgrass [1]; [11]) | Barnyardgrass plant response rating (barnyardgrass [1]; [12]) | Barnyardgrass plant response rating (barnyardgrass [1]; [13]) | Plant response rating (0 to 100 scale), Surinam Grass (Surinam grass; [11]) | Plant response rating (0 to 100 scale), Cocklebur (cocklebur; [11]) | Cocklebur plant response rating (cocklebur; [12]) | Plant response rating (0 to 100 scale), Corn (corn; [11]) | Corn plant response rating (corn; [12]) | Corn plant response rating (corn; [13]) | Plant response rating (0 to 100 scale), Foxtail, Giant (giant foxtail; [11]) | Plant response rating (0 to 100 scale), Lambsquarters (lambsquarters; [11]) | Velvetleaf plant response rating (velvetleaf; [12]) | Blackgrass plant response rating (blackgrass; [12]) | Blackgrass plant response rating (blackgrass; [13]) | Wheat plant response rating (wheat; [12]) | Wheat plant response rating (wheat; [14]) | Oat, Wild plant response rating (wild oat; [12]) | Oat, Wild plant response rating (wild oat; [14])
70: Sedge, Umbrella plant response rating [2] | Ducksalad plant response rating (ducksalad)
10: Surinam Grass plant response rating (Surinam grass; [12]) | Cocklebur plant response rating (cocklebur; [13]) | Crabgrass, Large plant response rating (large crabgrass; [12]) | Crabgrass, Large plant response rating (large crabgrass; [13]) | Foxtail, Giant plant response rating (giant foxtail; [12]) | Foxtail, Giant plant response rating (giant foxtail; [13]) | Plant response rating (0 to 100 scale), Morningglory (morningglory; [11]) | Plant response rating (0 to 100 scale), Velvetleaf (velvetleaf; [11]) | Velvetleaf plant response rating (velvetleaf; [14])
40: Morningglory plant response rating (morningglory; [14]) | Barnyardgrass plant response rating (barnyardgrass [3])
20: Surinam Grass plant response rating (Surinam grass; [14]) | Plant response rating (0 to 100 scale), Crabgrass, Large (large crabgrass; [11]) | Lambsquarters plant response rating (lambsquarters; [12]) | Morningglory plant response rating (morningglory; [12]) | Plant response rating (0 to 100 scale), Pigweed (pigweed; [11]) | Pigweed plant response rating (pigweed; [12]) | Wheat plant response rating (wheat; 500 g ai/ha, scale 0 to 100, 0 no effect, 100 complete control, preemergence)
50: Lambsquarters plant response rating (lambsquarters; [14]) | Pigweed plant response rating (pigweed; [14]) | Rice plant response rating (rice)
